Results as given in patent US9926297B2, “Bicyclic AZA compounds as muscarinic M1 receptor and/or M4 receptor agonists” (Heptares Therapeutics Limited, priority 2014, dated 2018).
Like-named read-outs stand apart in the source and are kept apart here.

Key:
[1] = molecular target: T1, human muscarinic M4 receptor (Homo sapiens, UniProt P08173); assay: Alphascreen Surefire phospho-ERK1/2 functional assay, M4; format: cell-based; settings: for EC50 / % Emax cf. ACh, M4: CHO cells stably expressing human M4; for EC50: phospho-ERK1/2, * = variable results, read-out: pEC50 M4 (converted); for Emax: CHO
T1 construct: expressed in transfected cells
T1 sequence (P08173 1-479): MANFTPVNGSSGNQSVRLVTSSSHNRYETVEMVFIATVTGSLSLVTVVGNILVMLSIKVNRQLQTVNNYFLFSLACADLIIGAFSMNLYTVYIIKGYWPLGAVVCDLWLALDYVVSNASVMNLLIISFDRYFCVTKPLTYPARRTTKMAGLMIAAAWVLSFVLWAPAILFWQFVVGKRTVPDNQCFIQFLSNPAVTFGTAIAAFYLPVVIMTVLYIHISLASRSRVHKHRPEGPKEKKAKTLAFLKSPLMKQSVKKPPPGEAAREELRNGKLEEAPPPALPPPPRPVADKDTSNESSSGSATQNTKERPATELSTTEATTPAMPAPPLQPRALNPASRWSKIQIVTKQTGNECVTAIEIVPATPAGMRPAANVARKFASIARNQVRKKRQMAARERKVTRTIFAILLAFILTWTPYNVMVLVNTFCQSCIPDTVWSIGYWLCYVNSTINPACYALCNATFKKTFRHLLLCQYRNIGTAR

[2] = molecular target: T2, human muscarinic M1 receptor (Homo sapiens, UniProt P11229); assay: Alphascreen Surefire phospho-ERK1/2 functional assay, M1; format: cell-based; settings: for EC50 / % Emax cf. ACh, M1: CHO cells stably expressing human M1; for EC50: phospho-ERK1/2, * = variable results, read-out: pEC50 M1 (converted); for Emax: CHO
T2 sequence (P11229 1-460): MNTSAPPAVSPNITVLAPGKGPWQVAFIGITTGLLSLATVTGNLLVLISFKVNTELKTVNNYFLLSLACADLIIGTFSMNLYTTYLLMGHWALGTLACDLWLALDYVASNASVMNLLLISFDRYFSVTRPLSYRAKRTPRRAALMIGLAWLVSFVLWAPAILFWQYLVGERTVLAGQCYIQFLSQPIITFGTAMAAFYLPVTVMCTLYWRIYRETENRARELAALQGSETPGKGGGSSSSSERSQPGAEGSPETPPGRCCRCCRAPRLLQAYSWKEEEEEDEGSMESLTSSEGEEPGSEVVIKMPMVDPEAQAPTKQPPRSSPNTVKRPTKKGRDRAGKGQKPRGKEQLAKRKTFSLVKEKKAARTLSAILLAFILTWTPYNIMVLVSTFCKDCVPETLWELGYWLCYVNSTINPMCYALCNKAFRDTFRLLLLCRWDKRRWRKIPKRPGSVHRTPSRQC

[3] = read-out: % Emax cf. ACh, M4, CHO cells stably expressing human M4, relative to ACh
[4] = read-out: % Emax cf. ACh, M1, CHO cells stably expressing human M1, relative to ACh

Compound: CCOC(=O)N1CCC2(CC(N3CCC(c4cc(C)c[nH]c4=O)CC3)C2)C1 (single isomer, unassigned) [3-15 Isomer 2, ethyl 2-[4-(5-methyl-2-oxo-1,2-dihydropyridin-3-yl)piperidin-1-yl]-6-azaspiro[3.4]octane-6-carboxylate]
- EC50 [1]: 39.8 nM
- Emax [1, 3]: 36%
- EC50 [2]: 251 nM
- Emax [2, 4]: 60%

Compound: COC(=O)N1CCC2(CC(N3CCC([C@@H]4CCCN4C(=O)N4CC(F)(F)C4)CC3)C2)C1 (single isomer, unassigned) [2-41 Isomer 2]
- EC50 [1]: 100 nM
- Emax [1, 3]: 91%
- EC50 [2]: 2510 nM
- Emax [2, 4]: 36%

Compound: CCOC(=O)N1CCC2(CC(N3CCC(c4cc[nH]c(=O)c4)CC3)C2)C1 (single isomer, unassigned) [3-16 Isomer 2, ethyl 2-[4-(2-oxo-1,2-dihydropyridin-4-yl)piperidin-1-yl]-6-azaspiro[3.4]octane-6-carboxylate]
- EC50 [1]: 2510 nM
- Emax [1, 3]: 47%
- EC50 [2]: 7940 nM
- Emax [2, 4]: 39%

Compound: CCOC(=O)N1CCC2(CC(N3CCC([C@@H]4CCCN4c4ncccn4)CC3)C2)C1 (single isomer, unassigned) [2-81 Isomer 2]
- EC50 [1]: 63.1 nM
- Emax [1, 3]: 33%
- EC50 [2]: > 20000 nM
- Emax [2, 4]: 12%

Compound: COC(=O)N1CCC2(CC(N3CCC(c4ncc(C)n4C)CC3)C2)C1 (single isomer, unassigned) [1-9 Isomer 2, methyl 2-[4-(1,5-dimethyl-1H-imidazol-2-yl)piperidin-1-yl]-6-azaspiro[3.4]octane-6-carboxylate]
- EC50 [1]: 794 nM
- Emax [1, 3]: 48%
- EC50 [2]: > 20000 nM
- Emax [2, 4]: 57%

Compound: CCOC(=O)N1CCC2(CC(N3CCC(c4nnnn4C4CC4)CC3)C2)C1 (single isomer, unassigned) [1-67 Isomer 2, ethyl 2-[4-(1-cyclopropyl-1H-tetrazol-5-yl)piperidin-1-yl]-6-azaspiro[3.4]octane-6-carboxylate]
- EC50 [1]: 316 nM
- Emax [1, 3]: 75%
- EC50 [2]: 3160 nM
- Emax [2, 4]: 37%

Compound: CCOC(=O)N1CCC2(CC(N3CCC(n4nnnc4C)CC3)C2)C1 (single isomer, unassigned) [1-63 Isomer 2, ethyl 2-[4-(5-methyl-1H-tetrazol-1-yl)piperidin-1-yl]-6-azaspiro[3.4]octane-6-carboxylate]
- EC50 [1]: 1000 nM
- Emax [1, 3]: 24%
- EC50 [2]: > 20000 nM
- Emax [2, 4]: 82%

Compound: COC(=O)N1CCC2(CC(N3CCC(c4nn(C)cc4C)CC3)C2)C1 (single isomer, unassigned) [1-55 Isomer 2, methyl 2-[4-(1,4-dimethyl-1H-pyrazol-3-yl)piperidin-1-yl]-6-azaspiro[3.4]octane-6-carboxylate]
- EC50 [1]: 501 nM
- Emax [1, 3]: 64%
- EC50 [2]: 5010 nM
- Emax [2, 4]: 40%

Compound: CCOC(=O)N1CCC2(CC(N3CCC(c4c(C)cc[nH]c4=O)CC3)C2)C1 (single isomer, unassigned) [3-14 Isomer 1, ethyl 2-[4-(4-methyl-2-oxo-1,2-dihydropyridin-3-yl)piperidin-1-yl]-6-azaspiro[3.4]octane-6-carboxylate]
- EC50 [1]: 501 nM
- Emax [1, 3]: 65%
- EC50 [2]: 3160 nM
- % Emax cf. ACh, M1 ([2]; relative to ACh): 65%

Compound: CCOC(=O)N1CCC2(CC(N3CCC(c4nnc(CC)[nH]4)CC3)C2)C1 (single isomer, unassigned) [1-27 Isomer 2, ethyl 2-[4-(5-ethyl-1H-1,2,4-triazol-3-yl)piperidin-1-yl]-6-azaspiro[3.4]octane-6-carboxylate]
- EC50 [1]: 398 nM
- Emax [1, 3]: 41%
- EC50 [2]: 1000 nM
- Emax [2, 4]: 27%

Compound: CCOC(=O)N1CCC2(CC(N3CCC(N4CC[C@H](F)C4)CC3)C2)C1 (single isomer, unassigned) [2-99 Isomer 2]
- EC50 [1]: 158 nM
- Emax [1, 3]: 54%
- EC50 [2]: > 20000 nM
- Emax [2, 4]: 18%

Compound: CCOC(=O)N1CCC2(CC(N3CCC(C)(c4nc(C)no4)CC3)C2)C1 (single isomer, unassigned) [1-41 Isomer 2, ethyl 2-[4-methyl-4-(3-methyl-1,2,4-oxadiazol-5-yl)piperidin-1-yl]-6-azaspiro[3.4]octane-6-carboxylate]
- EC50 [1]: 251 nM
- Emax ([1]; read-out: % Emax cf. ACh, M4): 35%
- EC50 [2]: 1000 nM
- Emax ([2]; read-out: % Emax cf. ACh, M1): 52%

Compound: CCOC(=O)N1CCC2(CC(N3CCC(N4CCCC4c4nnnn4C)CC3)C2)C1 (single isomer, unassigned) [2-130 Isomer 2, ethyl 2-{4-[2-(1-methyl-1H-tetrazol-5-yl)pyrrolidin-1-yl]piperidin-1-yl}-6-azaspiro[3.4]octane-6-carboxylate]
- EC50 [1]: 63.1 nM
- % Emax cf. ACh, M4 ([1]; relative to ACh): 66%
- EC50 [2]: > 20000 nM
- % Emax cf. ACh, M1 ([2]; relative to ACh): 11%

Compound: CCOC(=O)N1CCC2(CC(N3CCC(c4ncc(C)n4C)CC3)C2)C1 (single isomer, unassigned) [1-10 Isomer 2, ethyl 2-[4-(1,5-dimethyl-1H-imidazol-2-yl)piperidin-1-yl]-6-azaspiro[3.4]octane-6-carboxylate]
- EC50 [1]: 251 nM
- Emax [1, 3]: 106%
- EC50 [2]: 5010 nM
- Emax [2, 4]: 62%

Compound: CCOC(=O)N1CCC2(CC(N3CCC(N4C(=O)CC[C@@H]4CC)CC3)C2)C1 (single isomer, unassigned) [2-116 Isomer 2]
- EC50 [1]: 6.31 nM
- Emax [1, 3]: 103%
- EC50 [2]: 63.1 nM
- Emax [2, 4]: 109%

Compound: [2H]C([2H])(C)OC(=O)N1CCC2(CC(N3CCC(c4ccnn4C)CC3)C2)C1 (single isomer, unassigned) [1-71 Isomer 2, (1,1-^2H2)ethyl 2-[4-(1-methyl-1H-pyrazol-5-yl)piperidin-1-yl]-6-azaspiro[3.4]octane-6-carboxylate]
- EC50 [1]: 100 nM
- Emax [1, 3]: 69%
- EC50 [2]: > 20000 nM
- Emax [2, 4]: 6%

Compound: [2H]C([2H])([2H])COC(=O)N1CCC2(CC(N3CCC(n4cccn4)CC3)C2)C1 (single isomer, unassigned) [1-69 Isomer 2, (2,2,2-^2H3)ethyl 2-[4-(1H-pyrazol-1-yl)piperidin-1-yl]-6-azaspiro[3.4]octane-6-carboxylate]
- EC50 [1]: 5.01 nM
- Emax [1, 3]: 104%
- EC50 [2]: 79.4 nM
- Emax [2, 4]: 99%

Compound: COC(=O)N1CCC2(CC(N3CCC(c4ccnn4C)CC3)C2)C1 (mixture of isomers) [1-20 Mixture of diastereomers, methyl 2-[4-(1-methyl-1H-pyrazol-5-yl)piperidin-1-yl]-6-azaspiro[3.4]octane-6-carboxylate]
- EC50 [1]: 1000 nM
- Emax [1, 3]: 56%
- EC50 [2]: > 20000 nM
- Emax [2, 4]: 62%

Compound: CCC(=O)N1CCCC1C1CCN(C2CC3(CCN(C(=O)OC)C3)C2)CC1 (single isomer, unassigned) [2-5 Isomer 2, methyl 2-[4-(1-propanoylpyrrolidin-2-yl)piperidin-1-yl]-6-azaspiro[3.4]octane-6-carboxylate]
- EC50 [1]: 158 nM
- Emax [1, 3]: 66%
- EC50 [2]: 6310 nM
- Emax [2, 4]: 34%

Compound: CCOC(=O)N1CCC2(CC(N3CCC([C@@H]4CCCN4CCC(F)(F)F)CC3)C2)C1 (single isomer, unassigned) [2-70 Isomer 1]
- EC50 [1]: 158 nM
- % Emax cf. ACh, M4 ([1]; relative to ACh): 52%
- EC50 [2]: 3980 nM
- % Emax cf. ACh, M1 ([2]; relative to ACh): 37%

Compound: CCOC(=O)N1CCC2(CC(N3CCC(N4CC[C@@H](F)C4)CC3)C2)C1 (single isomer, unassigned) [2-98 Isomer 2]
- EC50 [1]: 126 nM
- Emax [1, 3]: 45%
- EC50 [2]: > 20000 nM
- Emax [2, 4]: 10%

Compound: CCOC(=O)N1CCC2(CC(N3CCC(N4C(=O)OC[C@H]4C(C)C)CC3)C2)C1 (single isomer, unassigned) [2-120 Isomer 2]
- EC50 [1]: 316 nM
- Emax [1, 3]: 87%
- EC50 [2]: 398 nM
- Emax [2, 4]: 96%

Compound: CCOC(=O)N1CCC2(CC(N3CCC(c4nccn4CC(=O)O)CC3)C2)C1 (single isomer, unassigned) [1-53 Isomer 2, (2-{1-[6-(ethoxycarbonyl)-6-azaspiro[3.4]oct-2-yl]piperidin-4-yl}-1H-imidazol-1-yl)acetic acid]
- EC50 [1]: 1260 nM
- Emax [1, 3]: 80%
- EC50 [2]: 5010 nM
- Emax [2, 4]: 38%

Compound: CCOC(=O)N1CCC2(CC(N3CCC(c4nc(C)no4)CC3)C2)C1 (single isomer, unassigned) [1-29 Isomer 2, ethyl 2-[4-(3-methyl-1,2,4-oxadiazol-5-yl)piperidin-1-yl]-6-azaspiro[3.4]octane-6-carboxylate]
- EC50 [1]: 126 nM
- Emax [1, 3]: 36%
- EC50 [2]: 794 nM
- Emax [2, 4]: 44%
